Like-named read-outs stand apart in the source and are kept apart here.
Columns and labels:
human DGKα = human DGKα (Homo sapiens (Human), UniProt P23743); assay: DGKα liposome (LIPGLO) in vitro DGK inhibition assay; format: biochemical; settings: extruded liposome substrate; 150 μM ATP; 5 nM enzyme; read-out: DGKa LIPGLO IC50
Procedure: The DGKα and DGKζ reactions were performed using either extruded liposome (DGKα and DGKζ LIPGLO assays) or detergent/lipid micelle substrate (DGKα and DGKζ assays). The reactions were carried out in 50 mM MOPS pH 7.5, 100 mM NaCl, 10 mM MgCl2, 1 μM CaCl2), and 1 mM DTT (assay buffer). The reactions using a detergent/lipid micelle substrate also contained 50 mM octyl B-D-glucopyranoside. The lipid substrate concentrations were 11 mM PS and 1 mM DAG for the detergent/lipid micelle reactions. […] The enzyme concentrations for the DGKα and DGKζ were 5 nM.

human DGKζ = human DGKζ (Homo sapiens (Human), UniProt Q13574); assay: DGKζ liposome (LIPGLO) in vitro DGK inhibition assay; format: biochemical; settings: extruded liposome substrate; 150 μM ATP; 5 nM enzyme; read-out: DGKz LIPGLO IC50
Chain of human DGKζ (Q13574 other isoform, or with tags, fused parts or gaps isoform Q13574-4): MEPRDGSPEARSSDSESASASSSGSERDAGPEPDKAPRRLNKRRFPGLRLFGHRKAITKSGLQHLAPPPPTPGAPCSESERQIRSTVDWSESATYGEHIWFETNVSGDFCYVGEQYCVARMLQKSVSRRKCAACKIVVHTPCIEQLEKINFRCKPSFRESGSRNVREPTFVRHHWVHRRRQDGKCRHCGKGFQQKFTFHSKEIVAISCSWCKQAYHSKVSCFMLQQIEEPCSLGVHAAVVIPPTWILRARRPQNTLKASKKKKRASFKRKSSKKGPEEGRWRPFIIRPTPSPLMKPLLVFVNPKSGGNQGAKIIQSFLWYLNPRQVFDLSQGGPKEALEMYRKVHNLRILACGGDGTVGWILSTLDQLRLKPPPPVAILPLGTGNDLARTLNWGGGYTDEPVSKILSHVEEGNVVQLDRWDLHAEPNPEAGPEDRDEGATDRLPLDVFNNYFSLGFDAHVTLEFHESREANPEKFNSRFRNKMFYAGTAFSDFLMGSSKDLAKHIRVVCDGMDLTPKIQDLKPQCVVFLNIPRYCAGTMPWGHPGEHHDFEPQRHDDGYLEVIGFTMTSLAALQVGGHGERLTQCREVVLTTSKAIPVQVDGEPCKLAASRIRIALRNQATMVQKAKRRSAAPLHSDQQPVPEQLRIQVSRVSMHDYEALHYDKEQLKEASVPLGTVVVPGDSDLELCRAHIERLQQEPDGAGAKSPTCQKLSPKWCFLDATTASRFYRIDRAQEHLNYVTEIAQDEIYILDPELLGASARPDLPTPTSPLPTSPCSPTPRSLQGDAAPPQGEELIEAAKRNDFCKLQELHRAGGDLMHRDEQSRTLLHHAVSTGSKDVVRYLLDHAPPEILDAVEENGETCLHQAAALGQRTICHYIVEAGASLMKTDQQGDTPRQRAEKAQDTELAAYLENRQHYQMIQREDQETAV
Procedure: The DGKα and DGKζ reactions were performed using either extruded liposome (DGKα and DGKζ LIPGLO assays) or detergent/lipid micelle substrate (DGKα and DGKζ assays). The reactions were carried out in 50 mM MOPS pH 7.5, 100 mM NaCl, 10 mM MgCl2, 1 μM CaCl2), and 1 mM DTT (assay buffer). The reactions using a detergent/lipid micelle substrate also contained 50 mM octyl B-D-glucopyranoside. The lipid substrate concentrations were 11 mM PS and 1 mM DAG for the detergent/lipid micelle reactions. The lipid substrate concentrations were 2 mM PS, 0.25 mM DAG, and 2.75 mM PC for the extruded liposome reactions. The reactions were carried out in 150 μM ATP. The enzyme concentrations for the DGKα and DGKζ were 5 nM.
The compound inhibition studies were carried out as follows: 50 nL droplets of each test compound (top concentration 10 mM with 11 point, 3-fold dilution series for each compound) solubilized in DMSO were transferred to wells of a white 1536 well plate (Corning 3725). A 5 mL enzyme/substrate solution at 2× final reaction concentration was prepared by combining 2.5 mL 4× enzyme solution (20 nM DGKα or DGKζ (prepared as described below) in assay buffer) and 2.5 mL of either 4× liposome or 4× detergent/lipid micelle solution (compositions described below) and incubated at room temperature for 10 minutes. Next, 1 μL 2× enzyme/substrate solution was added to wells containing the test compound and reactions were initiated with the addition of 1 μL 300 uM ATP. The reactions were allowed to proceed for 1 hr, after which 2 μL Glo Reagent (Promega V9101) was added and incubated for 40 minutes. Next, 4 μL Kinase Detection Reagent was added and incubated for 30 minutes. Luminescence was recorded using an EnVision microplate reader. […] The compounds were evaluated at 11 concentrations to determine IC50.
The lipid composition was 5 mol % DAG (Avanti 8008110), 40 mol % PS (Avanti 840035P), and 55 mol % PC (Avanti 850457) at a total lipid concentration of 15.2 mg/mL for the 4× liposome solution. The PC, DAG, and PS were dissolved in chloroform, combined, and dried in vacuo to a thin film. The lipids were hydrated to 20 mM in 50 mM MOPS pH 7.5, 100 mM NaCl, 5 mM MgCl2, and were freeze-thawed five times. The lipid suspension was extruded through a 100 nm polycarbonate filter eleven times. Dynamic light scattering was carried out to confirm liposome size (50-60 nm radius). The liposome preparation was stored at 4° C. for as long as four weeks.
Human DGK-alpha-TVMV-His-pFBgate and human DGK-zeta-transcript variant-2-TVMV-His-pFBgate baculovirus samples were generated using the Bac-to-Bac baculovirus expression system (Invitrogen) according to the manufacturer's protocol. The DNA used for expression of DGK-alpha and DGK-zeta have SEQ ID NOs: 251 and 252, respectively. Baculovirus amplification was achieved using infected Sf9 cells at 1:1500 virus/cell ratios, and grown for 65 hours at 27° C. post-transfection.
The expression scale up for each protein was carried out in the Cellbag 50 L WAVE-Bioreactor System 20/50 from GE Healthcare Bioscience. 12 L of 2×10^6 cells/mL Sf9 cells (Expression System, Davis, CA) grown in ESF921 insect medium (Expression System) were infected with virus stock at 1:200 virus/cell ratios, and grown for 66-68 hours at 27° C. post-infection. The infected cell culture was harvested by centrifugation at 2000 rpm for 20 min 4° C. in a SORVALL® RC12BP centrifuge. The cell pellets were stored at −70° C. until purification. […]

naïve human CD8 T cells = assay: Human CD8 T cells IFN-γ assay; format: cell-based; settings: anti-CD3 plus anti-CD28 as baseline, 3 μM reference compound as 100% activation, 20 h, read-out: HuCD8 INFG Normalized EC50
Procedure: Frozen naïve human CD8 T cells were thawed in AIM-V media, incubated for 2 h in 37° C., and counted. The 384-well tissue culture plate was coated overnight at 4° C. with 20 μL anti-human CD3 at 0.05 μg/mL in PBS, which was removed off the plate before 40,000 cells per 40 microliters CD8 T cells with 0.1 μg/mL soluble anti-human CD28 were added to each well. The compounds were transferred using an Echo liquid handler to the cell plate immediately after the cells were plated. After 20 h incubation at 37° C. incubator, 3 microliters per well supernatants transferred into anew 384-well white assay plate for cytokine measurement.
Interferon-γ (IFN-γ) was quantitated using the AlphLISA kit (Cat #AL217) as described by the manufacturer manual (Perkin Elmer). The counts from each well were converted to IFN-γ concentration (pg/mL).

[1] = tested on: OT-1 antigen-specific CD8+ T cells with SIINFEKL-loaded MC38 tumor cells; assay: Murine cytotoxic T lymphocyte (CTL) assay, IFN-γ readout; format: cell-based, mouse; settings: IFN-γ in supernatant after 24 hours, AlphaLisa; read-out: msCTL INFg IC50
Text: An antigen-specific cytolytic T-cell (CTL) assay was developed to evaluate functionally the ability of DGKα and DGKζ inhibitors to enhance effector T cell mediated tumor cell killing activity. CD8+ T-cells isolated from the OT-1 transgenic mouse recognize antigen presenting cells, MC38, that present the ovalbumin derived peptide […]. Recognition of the cognate antigen initiates the cytolytic activity of the OT-1 antigen-specific CD8+ T cells.
Functional CTL cells were generated as follows: OT-1 splenocytes from 8-12 week old mice were isolated and expanded in the presence of the […] peptide at 1 μg/mL and mIL2 at 10 U/mL. After three days, fresh media with […] was added. On day 5 of the expansion, the CD8+ T cells were isolated and ready for use. Activated CTL cells may be stored frozen for 6 months. Separately, one million MC38 tumor cells were pulsed with 1 μg/mL of […]-OVA peptide for 3 hours at 37° C. The cells were washed (3×) with fresh media to remove excess peptide. Finally, CTL cells that were pretreated with DGK inhibitors for 1 hour in a 96-well U bottom plate were combined with the antigen loaded MC38 tumor cells at a 1:10 ratio. The cells were then spun at 700 rpm for 5 min and placed in an incubator overnight at 37° C. After 24 hours, the supernatant was collected for analysis of IFN-γ cytokine levels by AlphaLisa purchased from Perkin Elmer.

Human venous whole blood = assay: Human whole blood IFN-γ assay; format: cell-based; settings: anti-CD3 and anti-CD28 1 μg/mL each, 3 μM reference compound as 100% activation, read-out: INFg Whole Blood Normalized Agonist EC50
Procedure: Human venous whole blood (22.5 μL per well), obtained from healthy donors, was pre-treated with compounds for one hour at 37° C. in a humidified 95% air/5% CO2 incubator. The blood was stimulated with 2.5 μL anti-human CD3 and anti-CD28 mAb at a final concentration of 1 μg/mL each for 24 hours at 37° C. IFN-γ in the supernatants was measured using ALphLISA kit (Cat #AL217).

Chain of human DGKα (P23743 other isoform, or with tags, fused parts or gaps): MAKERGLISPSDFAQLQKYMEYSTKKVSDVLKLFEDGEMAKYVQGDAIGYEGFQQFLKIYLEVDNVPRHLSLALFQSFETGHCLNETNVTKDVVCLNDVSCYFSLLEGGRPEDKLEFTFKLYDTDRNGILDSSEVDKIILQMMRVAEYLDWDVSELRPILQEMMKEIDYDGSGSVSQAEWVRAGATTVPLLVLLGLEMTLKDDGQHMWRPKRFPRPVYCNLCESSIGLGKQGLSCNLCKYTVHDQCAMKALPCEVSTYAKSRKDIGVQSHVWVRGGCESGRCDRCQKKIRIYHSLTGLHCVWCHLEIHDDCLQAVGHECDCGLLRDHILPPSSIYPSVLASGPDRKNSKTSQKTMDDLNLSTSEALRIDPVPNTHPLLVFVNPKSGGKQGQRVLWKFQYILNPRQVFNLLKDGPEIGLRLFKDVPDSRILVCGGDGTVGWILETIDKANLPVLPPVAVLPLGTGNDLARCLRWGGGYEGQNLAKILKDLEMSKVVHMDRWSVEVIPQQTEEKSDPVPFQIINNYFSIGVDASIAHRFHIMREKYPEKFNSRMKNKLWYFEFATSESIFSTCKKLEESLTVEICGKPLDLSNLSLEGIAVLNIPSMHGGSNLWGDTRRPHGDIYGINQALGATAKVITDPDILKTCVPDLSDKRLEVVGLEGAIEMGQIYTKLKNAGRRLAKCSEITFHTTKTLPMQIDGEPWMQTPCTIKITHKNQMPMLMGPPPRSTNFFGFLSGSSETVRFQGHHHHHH

Structure (SMILES): CCC(c1ccc(F)cc1F)N1C[C@H](C)N(c2cc(=O)n(C)c3ccc(C#N)nc23)C[C@H]1C (mixture of isomers) [Compound 12, 8-((2S,5R)-4-(1-(2,4-difluorophenyl)propyl)-2,5-dimethylpiperazin-1-yl)-5-methyl-6-oxo-5,6-dihydro-1,5-naphthyridine-2-carbonitrile]
- IC50 (human DGKα): 570 nM
- IC50 (human DGKζ): 460 nM

Structure (SMILES): C[C@@H]1CN(c2cc(=O)n(C)c3ccc(C#N)nc23)[C@@H](C)CN1C(c1ccccc1)c1ccc(F)cc1 (single isomer, unassigned) [Compound 7]
- EC50 (naïve human CD8 T cells): 47 nM
- IC50 [1]: 64 nM
- EC50 (Human venous whole blood; 24 hours): 570 nM

Structure (SMILES): CC[C@@H]1CN(c2nc(=O)n(C)c3ccc(C#N)nc23)[C@@H](C)CN1C(C)c1ccc(C(F)(F)F)cc1 (single isomer, unassigned) [Compound 19]
- EC50 (Human venous whole blood; 24 hours): 520 nM

Structure (SMILES): CC[C@@H]1CN(c2nc(=O)n(C)c3ccc(C#N)nc23)[C@@H](C)CN1C(C)c1ccc(C(F)(F)F)cc1 (single isomer, unassigned) [Compound 20]
- EC50 (Human venous whole blood; 24 hours): 32 nM

Structure (SMILES): CC[C@@H]1CN(c2nc(=O)n(C)c3ccc(C#N)nc23)[C@@H](C)CN1C(c1ccc(F)cc1)c1ccc(C(F)(F)F)cn1 (single isomer, unassigned) [Compound 22]
- EC50 (Human venous whole blood; Homo sapiens, 24 h): 20 nM

Structure (SMILES): CC[C@@H]1CN(c2nc(=O)n(C)c3ccc(C#N)nc23)[C@@H](C)CN1C(c1ccc(Cl)cc1)c1ccccn1 (single isomer, unassigned) [Compound 23]
- EC50 (Human venous whole blood; 24 hours): 10500 nM

Structure (SMILES): CC[C@@H]1CN(c2nc(=O)n(C)c3ccc(C#N)nc23)[C@@H](C)CN1C(c1ccc(Cl)cc1)c1ccccn1 (single isomer, unassigned) [Compound 24]
- EC50 (Human venous whole blood; 24 hours): 200 nM

Structure (SMILES): CCC1CN(C(c2ccc(F)cc2)c2nc(C3CC3)no2)C(CC)CN1c1nc(=O)n(C)c2ccc(C#N)nc12 (single isomer, unassigned) [Compound 25]
- IC50 (human DGKα): 67 nM
- IC50 (human DGKζ): 29 nM
- EC50 (Human venous whole blood; 24 hours): 15 nM

Structure (SMILES): CCC1CN(C(c2ccc(F)cc2)c2nc(C3CC3)no2)C(CC)CN1c1nc(=O)n(C)c2ccc(C#N)nc12 (single isomer, unassigned) [Compound 26]
- IC50 (human DGKα): 14 nM
- IC50 (human DGKζ): 33 nM
- EC50 (Human venous whole blood; 24 hours): 90 nM

Structure (SMILES): C[C@@H]1CN(c2cc(=O)n(C)c3ccc(C#N)nc23)[C@@H](C)CN1C(c1ccccc1)c1ccc(F)cc1 (stereo partly drawn) [Compound 5, 8-[(2S,5R)-4-[(4-fluorophenyl)(phenyl)methyl]-2,5-dimethylpiperazin-1-yl]-5-methyl-6-oxo-5,6-dihydro-1,5-naphthyridine-2-carbonitrile]
- IC50 (human DGKα): 870 nM
- IC50 (human DGKζ): 1600 nM

Structure (SMILES): Cc1ccc(C(c2ccc(F)cc2)N2C[C@H](C)N(c3cc(=O)n(C)c4ccc(C#N)nc34)C[C@H]2C)cc1 (stereo partly drawn) [Compound 10, 8-[(2S,5R)-4-[(4-fluorophenyl)(4-methylphenyl)methyl]-2,5-dimethylpiperazin-1-yl]-5-methyl-6-oxo-5,6-dihydro-1,5-naphthyridine-2-carbonitrile]
- IC50 (human DGKα): 670 nM
- IC50 (human DGKζ): 320 nM
- EC50 (naïve human CD8 T cells; Homo sapiens, T-cell): 23 nM
- EC50 (Human venous whole blood; Homo sapiens, 24 h): 440 nM

Structure (SMILES): CCC(c1ccc(C(F)(F)F)cc1)N1C[C@H](CC)N(c2nc(=O)n(C)c3ccc(C#N)nc23)C[C@H]1CC (stereo partly drawn) [Compound 18, 4-((2S,5R)-2,5-Diethyl-4-(1-(4-(trifluoromethyl)phenyl)propyl)piperazin-1-yl)-1-methyl-2-oxo-1,2-dihydropyrido[3,2-d]pyrimidine-6-carbonitrile]
- EC50 (Human venous whole blood; 24 hours): 3750 nM

Structure (SMILES): CC[C@@H]1CN(c2nc(=O)n(C)c3ccc(C#N)nc23)[C@@H](C)CN1C(c1ccc(F)cc1)c1ccc(C(F)(F)F)cn1 (stereo partly drawn) [Compound 21, 4-((2S,5R)-5-Ethyl-4-((4-fluorophenyl)(5-(trifluoromethyl)pyridin-2-yl)methyl)-2-methylpiperazin-1-yl)-1-methyl-2-oxo-1,2-dihydropyrido[3,2-d]pyrimidine-6-carbonitrile]
- EC50 (Human venous whole blood; Homo sapiens, 24 h): 43 nM

Reference: patent publication US20240108654A1, “COMBINATION OF A T CELL THERAPY AND A DGK INHIBITOR” (Juno Therapeutics, Inc., priority 2021, published 2024)
